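How tested: cells in 96-well plates exposed to compound for 48 hours at five concentrations. GI50 = concentration required for 50% inhibition of growth.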 Active and inactive are the calls of the source. No stated cut-off is given here; in the data, active = GI50 up to about 1.1 µM and inactive = higher.
Key:
Assay in all cases: inhibition of tumour cell growth, NCI panel, 48 h
K562 = test system: K562
Hs-578T = test system: Hs-578T
OVCAR-8 = test system: OVCAR-8
SF-268 = test system: SF-268
OVCAR-3 = test system: OVCAR-3
SR = test system: SR
IGROV-1 = test system: IGROV-1
UACC-257 = test system: UACC-257
DU-145 = test system: DU-145
MDA-MB-435 = test system: MDA-MB-435
MDA-N = test system: MDA-N
MOLT-4 = test system: MOLT-4
NCI-H23 = test system: NCI-H23
HCT-116 = test system: HCT-116
SF-539 = test system: SF-539
SNB-19 = test system: SNB-19
A549 = test system: A549
COLO 205 = test system: COLO 205
PC-3 = test system: PC-3
TK-10 = test system: TK-10

Measured: GI50

CCOc1cc(NC(C)=O)ccc1C(=O)NN1C(=O)/C(=C/c2ccco2)N=C1c1ccccc1
inactive: K562 26.8 µM | Hs-578T 42.8 µM | OVCAR-8 41.2 µM | SF-268 > 100 µM | OVCAR-3 > 100 µM | SR 41.5 µM | IGROV-1 > 100 µM | UACC-257 > 100 µM | DU-145 > 100 µM | MDA-MB-435 > 100 µM | MDA-N > 100 µM | MOLT-4 22.3 µM | NCI-H23 > 100 µM | HCT-116 > 100 µM | SF-539 > 100 µM | SNB-19 > 100 µM | A549 > 100 µM | COLO 205 > 100 µM | PC-3 > 100 µM

CN(C)/N=C/c1cn(C)c(=O)n(C)c1=O
inactive: K562 > 100 µM | Hs-578T > 100 µM | OVCAR-8 > 100 µM | SF-268 > 100 µM | OVCAR-3 > 100 µM | TK-10 > 100 µM | IGROV-1 > 100 µM | UACC-257 > 100 µM | DU-145 > 100 µM | MDA-MB-435 > 100 µM | MDA-N > 100 µM | MOLT-4 > 100 µM | NCI-H23 > 100 µM | HCT-116 > 100 µM | SF-539 > 100 µM | SNB-19 > 100 µM | A549 > 100 µM | COLO 205 > 100 µM | PC-3 > 100 µM

O=c1nc2n3c4c(cccc4nc-2c(=O)[nH]1)CCC3
inactive: K562 > 100 µM | Hs-578T 28.2 µM | OVCAR-8 > 100 µM | SF-268 > 100 µM | OVCAR-3 14 µM | TK-10 > 100 µM | IGROV-1 > 100 µM | UACC-257 > 100 µM | DU-145 > 100 µM | MDA-MB-435 61.9 µM | MDA-N > 100 µM | MOLT-4 > 100 µM | NCI-H23 > 100 µM | HCT-116 47.5 µM | SF-539 > 100 µM | SNB-19 > 100 µM | A549 > 100 µM | COLO 205 47 µM | PC-3 > 100 µM

CCc1nc2ccc(/N=N/N(C)C)cc2[nH]1
inactive: K562 > 100 µM | Hs-578T > 100 µM | OVCAR-8 > 100 µM | SF-268 > 100 µM | OVCAR-3 > 100 µM | TK-10 > 100 µM | IGROV-1 > 100 µM | UACC-257 > 100 µM | DU-145 > 100 µM | MDA-MB-435 > 100 µM | MDA-N > 100 µM | MOLT-4 > 100 µM | NCI-H23 > 100 µM | HCT-116 > 100 µM | SNB-19 > 100 µM | A549 > 100 µM | COLO 205 > 100 µM | PC-3 > 100 µM

C=C(Nc1nc2ccc(C)cc2s1)C(=O)C(CC)C(=O)C(CC)CC1C(=O)NC(=O)NC1=O (configuration not stated)
inactive: Hs-578T > 100 µM | OVCAR-8 > 100 µM | SF-268 > 100 µM | OVCAR-3 > 100 µM | TK-10 > 100 µM | IGROV-1 > 100 µM | UACC-257 > 100 µM | DU-145 > 100 µM | MDA-MB-435 > 100 µM | MDA-N > 100 µM | MOLT-4 > 100 µM | NCI-H23 > 100 µM | HCT-116 > 100 µM | SF-539 > 100 µM | SNB-19 > 100 µM | A549 > 100 µM | COLO 205 > 100 µM | PC-3 > 100 µM

CC(=O)N(O)c1ccc(-c2nc3ccccc3s2)cc1
inactive: K562 > 100 µM | Hs-578T 32.7 µM | OVCAR-8 40.9 µM | SF-268 74.6 µM | OVCAR-3 52.2 µM | SR > 100 µM | TK-10 80.7 µM | IGROV-1 32.9 µM | UACC-257 > 100 µM | DU-145 > 100 µM | MDA-MB-435 86.9 µM | MDA-N 77.6 µM | MOLT-4 48.6 µM | NCI-H23 > 100 µM | HCT-116 68.5 µM | SNB-19 60 µM | A549 42.6 µM | COLO 205 > 100 µM | PC-3 > 100 µM

COC(=O)c1ccc(NCc2c(O)ccc(O)c2Br)cc1Cl
inactive: K562 1.78 µM | Hs-578T 25.1 µM | OVCAR-8 14.7 µM | SF-268 17.4 µM | OVCAR-3 8.77 µM | IGROV-1 14.5 µM | UACC-257 25.2 µM | DU-145 16.2 µM | MDA-MB-435 13.6 µM | MDA-N 12 µM | MOLT-4 1.36 µM | NCI-H23 16.6 µM | HCT-116 17.8 µM | SF-539 14.2 µM | SNB-19 25.9 µM | A549 54.7 µM | COLO 205 18.1 µM | PC-3 13.8 µM

CCOC(=O)c1c(C)n(Cc2ccccc2)c2c1cc(O)c1[nH]c3c(c12)CCCC3
inactive: K562 3.33 µM | Hs-578T 2.25 µM | OVCAR-8 6.32 µM | SF-268 1.81 µM | OVCAR-3 2.2 µM | TK-10 10.6 µM | IGROV-1 3.44 µM | UACC-257 17.5 µM | DU-145 12.6 µM | MDA-MB-435 11.9 µM | MDA-N 13.6 µM | MOLT-4 2.43 µM | NCI-H23 10.4 µM | HCT-116 6.1 µM | SF-539 1.95 µM | SNB-19 3.03 µM | A549 6.52 µM | COLO 205 5.85 µM | PC-3 2.43 µM

C/C=C/C=C/C1=NN(c2cccc(S(=O)(=O)O)c2)C2(C1)SCC(=O)N2c1nc2ccccc2s1 (configuration not stated)
inactive: K562 44 µM | Hs-578T > 100 µM | OVCAR-8 36.2 µM | SF-268 89.7 µM | SR 25.1 µM | TK-10 47.8 µM | IGROV-1 19.7 µM | UACC-257 > 100 µM | DU-145 34.5 µM | MDA-MB-435 36.1 µM | MDA-N 61 µM | MOLT-4 29.4 µM | NCI-H23 42.5 µM | HCT-116 67 µM | SF-539 45.9 µM | SNB-19 47 µM | A549 86.3 µM | COLO 205 > 100 µM | PC-3 62.2 µM

Cc1nn(C(=O)Cc2ccccc2)c2c1C(c1ccc(N(C)C)cc1)SC(=N)N2 (configuration not stated)
inactive: Hs-578T 24.5 µM | OVCAR-8 > 100 µM | SF-268 > 100 µM | SR > 100 µM | TK-10 76.6 µM | IGROV-1 > 100 µM | UACC-257 > 100 µM | DU-145 > 100 µM | MDA-MB-435 > 100 µM | MDA-N > 100 µM | MOLT-4 > 100 µM | NCI-H23 > 100 µM | HCT-116 > 100 µM | SF-539 46.1 µM | SNB-19 > 100 µM | A549 > 100 µM | COLO 205 > 100 µM | PC-3 > 100 µM

COc1cc2c(cc1OC)C1CN3C(=O)CCC3C(O)C1c1cc(OC)c(OC)cc1-2 (configuration not stated)
inactive: K562 > 100 µM | Hs-578T > 100 µM | OVCAR-8 > 100 µM | SF-268 > 100 µM | SR > 100 µM | TK-10 > 100 µM | IGROV-1 > 100 µM | UACC-257 > 100 µM | DU-145 > 100 µM | MDA-MB-435 > 100 µM | MDA-N > 100 µM | MOLT-4 > 100 µM | NCI-H23 > 100 µM | HCT-116 > 100 µM | SNB-19 > 100 µM | A549 > 100 µM | COLO 205 > 100 µM

Nc1nnnn1CCO
inactive: K562 > 100 µM | Hs-578T > 100 µM | OVCAR-8 > 100 µM | SF-268 > 100 µM | OVCAR-3 > 100 µM | TK-10 > 100 µM | IGROV-1 > 100 µM | UACC-257 > 100 µM | DU-145 > 100 µM | MDA-MB-435 > 100 µM | MDA-N > 100 µM | NCI-H23 > 100 µM | HCT-116 > 100 µM | SF-539 > 100 µM | SNB-19 > 100 µM | A549 > 100 µM | COLO 205 > 100 µM | PC-3 > 100 µM

O=C1NC(=O)C2(CCCCCC2)N1
inactive: K562 > 100 µM | Hs-578T > 100 µM | OVCAR-8 > 100 µM | SF-268 > 100 µM | OVCAR-3 > 100 µM | TK-10 > 100 µM | IGROV-1 > 100 µM | UACC-257 > 100 µM | DU-145 > 100 µM | MDA-MB-435 > 100 µM | MDA-N > 100 µM | MOLT-4 > 100 µM | NCI-H23 > 100 µM | HCT-116 > 100 µM | SF-539 > 100 µM | SNB-19 > 100 µM | A549 > 100 µM | COLO 205 > 100 µM | PC-3 > 100 µM

COc1cc(/N=N/N(C)C)c(C(C)c2c3cc(OC)c(OC)cc3cc[n+]2C)cc1OC (configuration not stated)
inactive: K562 18.1 µM | Hs-578T 63.5 µM | OVCAR-8 39.1 µM | SF-268 31.3 µM | OVCAR-3 26.7 µM | TK-10 31.6 µM | IGROV-1 36.9 µM | UACC-257 38 µM | DU-145 62.7 µM | MDA-MB-435 40.7 µM | MDA-N 34.8 µM | MOLT-4 56.1 µM | NCI-H23 41.6 µM | HCT-116 30 µM | SF-539 10.3 µM | SNB-19 42.3 µM | A549 > 100 µM | COLO 205 14.8 µM | PC-3 38.5 µM

CN(N)/N=N/c1[nH]cnc1[N+](=O)[O-]
inactive: K562 19.6 µM | Hs-578T > 100 µM | OVCAR-8 28.4 µM | SF-268 42.9 µM | OVCAR-3 > 100 µM | TK-10 > 100 µM | IGROV-1 > 100 µM | UACC-257 > 100 µM | DU-145 > 100 µM | MDA-MB-435 > 100 µM | MDA-N 51.2 µM | MOLT-4 14.6 µM | NCI-H23 > 100 µM | HCT-116 34.8 µM | SF-539 46.6 µM | A549 > 100 µM | COLO 205 > 100 µM | PC-3 > 100 µM
